Experimental data as given in patent US20220000734A1, “COMPOSITION AND METHOD OF STRENGTHENING SKIN BARRIER” (AMOREPACIFIC CORPORATION, priority 2018, published 2022).

Assays:
Assay type in all cases: cell-based, human
[1] = test system: KRT1 (keratin 1); test: KRT1 gene expression in UVB-irradiated NHEK (Taqman real-time PCR); conditions: UVB 25 mJ/cm^2, 10 nM compound, fourth day of culture, FIG. 1
Experimental: (§1) Normal human epidermal keratinocytes (NHEK) were cultured in a 6-well plate incubator. 24 hours later, the normal human epidermal keratinocytes (NHEK) were cultured by replacing it with phosphate-buffered saline (PBS) and irradiating it with UVB (25 mJ/cm^2) and adding 10 nM of a compound represented by Chemical Formula 1-1 (Cayman Chemical) to the NHEK culture medium. On the fourth day of the culture, cells were harvested to separate RNA and synthesize cDNA through RT-PCR (a reverse transcriptional polymerase chain reaction), and the synthesized cDNA was used to perform Taqman real-time PCR and measure gene expression levels of a keratinocyte differentiation markers, KRT1 and KRT10, and a desmosome constituent factor, DSC1, and the results are shown in FIGS. 1 to 3.

[2] = test system: KRT10 (keratin 10); test: KRT10 gene expression in UVB-irradiated NHEK (Taqman real-time PCR); conditions: UVB 25 mJ/cm^2, 10 nM compound, fourth day of culture, FIG. 2
Experimental: as §1

[3] = test system: DSC1; test: DSC1 gene expression in UVB-irradiated NHEK (Taqman real-time PCR); conditions: UVB 25 mJ/cm^2, 10 nM compound, fourth day of culture, FIG. 3
Experimental: as §1

CC/C=C/C/C=C\C[C@H](O)\C=C/C=C/C=C/[C@H](O)C/C=C\CCC(=O)O [Chemical Formula 1-1]
increased again: gene expression level of KRT1 (keratin 1) [1] | gene expression level of KRT10 (keratin 10) [2] | gene expression level of DSC1 [3]
